Assay results: ChEMBL document CHEMBL1909046, “DrugMatrix in vitro pharmacology data”

Assays:
[1] = target: Sodium-dependent noradrenaline transporter (Homo sapiens, UniProt P23975); assay: DRUGMATRIX: Norepinephrine Transporter radioligand binding (ligand: [125I] RTI-55); type: cell membranes, MDCK, Membrane; conditions: Not Active = under 50% inhibition at 10 µM
[2] = target: 5-hydroxytryptamine receptor 6 (Homo sapiens, UniProt P50406); type: cell membranes, HeLa, Membrane; conditions: hela; further: in other assays of this panel Not Active means under 50% inhibition at 10 µM
[3] = target: Beta-1 adrenergic receptor (Homo sapiens, UniProt P08588); assay: DRUGMATRIX: Adrenergic beta1 radioligand binding (ligand: [125I] Cyanopindolol); type: cell membranes, CHO-K1, Membrane; conditions: cho-k1; Not Active = under 50% inhibition at 10 µM
[4] = DRUGMATRIX: Platelet-Derived Growth Factor (PDGF) radioligand binding (ligand: [125I] PDGF); type: cell-based; conditions: nih3t3; Not Active = under 50% inhibition at 10 µM
[5] = target: Protein phosphatase 3 catalytic subunit alpha (Homo sapiens, UniProt Q08209); parameters: species or system Escherichia coli;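 further: inhibition of calcineurin (PP2B) enzyme activity, measured with DiFMUP as the substrate; in other assays of this panel Not Active means under 50% inhibition at 10 µM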
[6] = target: T1, Neuropeptide Y receptor type 2 (Homo sapiens, UniProt P49146); type: cell membranes, KAN-TS, Membrane; conditions: kan-ts; further: in other assays of this panel Not Active means under 50% inhibition at 10 µM
T1 sequence (P49146 whole entry): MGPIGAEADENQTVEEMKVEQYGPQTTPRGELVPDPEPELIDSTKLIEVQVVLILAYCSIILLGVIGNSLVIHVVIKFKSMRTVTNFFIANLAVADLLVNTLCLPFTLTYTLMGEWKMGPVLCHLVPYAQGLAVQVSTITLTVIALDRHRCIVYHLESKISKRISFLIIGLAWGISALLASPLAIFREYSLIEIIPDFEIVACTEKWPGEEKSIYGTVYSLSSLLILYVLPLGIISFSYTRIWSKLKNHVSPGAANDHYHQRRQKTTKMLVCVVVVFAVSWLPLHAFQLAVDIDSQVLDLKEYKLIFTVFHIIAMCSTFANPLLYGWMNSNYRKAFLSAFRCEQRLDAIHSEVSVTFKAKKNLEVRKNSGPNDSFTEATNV

5-hydroxytryptamine receptor 6, sequence (P50406 whole entry): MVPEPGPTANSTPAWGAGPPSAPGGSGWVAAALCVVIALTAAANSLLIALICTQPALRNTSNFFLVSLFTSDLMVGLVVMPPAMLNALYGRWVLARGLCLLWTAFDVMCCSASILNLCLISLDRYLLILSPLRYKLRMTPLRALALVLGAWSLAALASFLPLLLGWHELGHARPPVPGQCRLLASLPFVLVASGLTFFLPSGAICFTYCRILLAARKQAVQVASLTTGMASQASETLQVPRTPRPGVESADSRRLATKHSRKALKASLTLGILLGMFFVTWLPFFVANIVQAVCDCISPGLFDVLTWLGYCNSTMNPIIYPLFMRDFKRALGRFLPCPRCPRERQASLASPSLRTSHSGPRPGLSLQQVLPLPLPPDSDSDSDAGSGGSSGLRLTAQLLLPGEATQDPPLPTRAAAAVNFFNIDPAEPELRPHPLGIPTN
Sodium-dependent noradrenaline transporter, sequence (P23975 whole entry): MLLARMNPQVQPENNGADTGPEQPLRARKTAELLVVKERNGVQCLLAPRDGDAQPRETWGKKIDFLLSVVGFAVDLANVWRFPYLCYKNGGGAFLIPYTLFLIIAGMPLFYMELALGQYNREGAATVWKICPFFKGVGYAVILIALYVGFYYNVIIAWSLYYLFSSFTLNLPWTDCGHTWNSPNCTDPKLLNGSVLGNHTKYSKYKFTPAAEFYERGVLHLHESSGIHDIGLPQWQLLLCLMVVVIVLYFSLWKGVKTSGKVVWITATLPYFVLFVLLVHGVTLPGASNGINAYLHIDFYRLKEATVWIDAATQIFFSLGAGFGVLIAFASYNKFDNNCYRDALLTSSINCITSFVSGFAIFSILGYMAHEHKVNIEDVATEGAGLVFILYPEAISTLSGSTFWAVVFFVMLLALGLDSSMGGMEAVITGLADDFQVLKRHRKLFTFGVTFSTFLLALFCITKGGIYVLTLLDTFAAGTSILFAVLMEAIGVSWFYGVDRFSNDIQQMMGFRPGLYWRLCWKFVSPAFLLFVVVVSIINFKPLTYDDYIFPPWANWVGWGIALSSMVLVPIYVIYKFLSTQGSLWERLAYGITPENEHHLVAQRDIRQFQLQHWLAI
Beta-1 adrenergic receptor, sequence (P08588 whole entry): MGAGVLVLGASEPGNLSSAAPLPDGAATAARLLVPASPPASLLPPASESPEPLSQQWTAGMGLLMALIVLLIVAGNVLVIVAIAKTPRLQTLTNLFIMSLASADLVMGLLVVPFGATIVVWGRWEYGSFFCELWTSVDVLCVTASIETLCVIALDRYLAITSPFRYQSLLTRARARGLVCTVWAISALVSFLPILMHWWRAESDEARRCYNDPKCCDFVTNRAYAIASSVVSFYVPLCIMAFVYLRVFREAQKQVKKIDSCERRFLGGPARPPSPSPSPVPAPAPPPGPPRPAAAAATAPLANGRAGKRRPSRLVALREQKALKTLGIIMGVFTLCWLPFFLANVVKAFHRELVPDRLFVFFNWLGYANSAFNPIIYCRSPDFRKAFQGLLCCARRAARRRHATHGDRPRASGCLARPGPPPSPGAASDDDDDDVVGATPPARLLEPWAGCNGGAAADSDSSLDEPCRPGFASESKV

Molecule | IC50 ([1]; mdck) | IC50 [2] | IC50 [3] | IC50 [4] | Ki [4] | IC50 [5] | IC50 [6] | IC50 ([1]; read-out: IC50) [µM] | Ki ([1]; read-out: Ki) [µM] | Ki ([1]; mdck) | Ki [2] | Ki [3] | Ki [5] | Ki [6]
CC(=O)O[C@H]1C(=O)[C@@]2(C)[C@H]([C@H](OC(=O)c3ccccc3)[C@]3(O)C[C@H](OC(=O)[C@H](O)[C@@H](NC(=O)c4ccccc4)c4ccccc4)C(C)=C1C3(C)C)[C@]1(OC(C)=O)CO[C@@H]1C[C@@H]2O [PACLITAXEL] | Not Active | Not Active | Not Active | Not Active | Not Active | Not Active | Not Active |  |  |  |  |  |  | 
C[n+]1ccc(-c2cc[n+](C)cc2)cc1.[Cl-].[Cl-] [PARAQUAT DICHLORIDE] | Not Active | Not Active | Not Active | Not Active | Not Active | Not Active | Not Active |  |  |  |  |  |  | 
CCn1cc(C(=O)O)c(=O)c2cnc(N3CCCC3)nc21 [PIROMIDIC ACID] | Not Active | Not Active | Not Active | Not Active | Not Active | Not Active | Not Active |  |  |  |  |  |  | 
C[n+]1ccccc1/C=N/O.[Cl-] [PRALIDOXIME CHLORIDE] | Not Active | Not Active | Not Active | Not Active | Not Active | Not Active | Not Active |  |  |  |  |  |  | 
COc1cc2nc(N3CCN(C(=O)c4ccco4)CC3)nc(N)c2cc1OC [PRAZOSIN] | Not Active | Not Active | Not Active | Not Active | Not Active | Not Active | Not Active |  |  |  |  |  |  | 
C[C@]12C=CC(=O)C=C1CC[C@@H]1[C@@H]2[C@@H](O)C[C@@]2(C)[C@H]1CC[C@]2(O)C(=O)CO [PREDNISOLONE] | Not Active | Not Active | Not Active | Not Active | Not Active | Not Active | Not Active |  |  |  |  |  |  | 
CC(=O)[C@H]1[C@H](C#N)C[C@H]2[C@@H]3CC=C4C[C@@H](O)CC[C@]4(C)[C@H]3CC[C@@]21C [PREGNENOLONE CARBONITRILE] | Not Active | Not Active | Not Active | Not Active | Not Active | Not Active | Not Active |  |  |  |  |  |  | 
CCCN(CCC)S(=O)(=O)c1ccc(C(=O)O)cc1 [PROBENECID] | Not Active | Not Active | Not Active | Not Active | Not Active | Not Active | Not Active |  |  |  |  |  |  | 
CCCOc1ccc(C(=O)OCCN(CC)CC)cc1N [PROPARACAINE] | Not Active | Not Active | Not Active | Not Active | Not Active | Not Active | Not Active |  |  |  |  |  |  | 
CC(C)c1cccc(C(C)C)c1O [PROPOFOL] |  | Not Active | Not Active | Not Active | Not Active | Not Active | Not Active | 9.39 | 9.32 |  |  |  |  | 
C[C@@H]1O[C@@H](O[C@@H]2C=C3CC[C@@H]4[C@H](CC[C@]5(C)[C@@H](c6ccc(=O)oc6)CC[C@]45O)[C@@]3(C)CC2)[C@H](O)[C@H](O)[C@H]1O [PROSCILLARIDIN] | Not Active | Not Active | Not Active | Not Active | Not Active | Not Active | Not Active |  |  |  |  |  |  | 
Oc1cccc(O)c1O [PYROGALLOL] | Not Active | Not Active | Not Active | Not Active | Not Active | Not Active | Not Active |  |  |  |  |  |  | 
AURANOFIN | Not Active | Not Active | Not Active | Not Active | Not Active | Not Active | Not Active |  |  | Not Active | Not Active | Not Active | Not Active | Not Active
GADOPENTETATE DIMEGLUMINE | Not Active | Not Active | Not Active | Not Active | Not Active | Not Active | Not Active |  |  | Not Active | Not Active | Not Active | Not Active | Not Active
GENTAMICIN | Not Active | Not Active | Not Active | Not Active | Not Active | Not Active | Not Active |  |  | Not Active | Not Active | Not Active | Not Active | Not Active
GRAMICIDIN | Not Active | Not Active | Not Active | Not Active | Not Active | Not Active | Not Active |  |  | Not Active | Not Active | Not Active | Not Active | Not Active
NYSTATIN | Not Active | Not Active | Not Active | Not Active | Not Active | Not Active | Not Active |  |  | Not Active | Not Active | Not Active | Not Active | Not Active
